# Test results: PMC3387161, “Small Molecules Targeted to a Non-Catalytic “RVxF” Binding Site of Protein Phosphatase-1 Inhibit HIV-1” (PLoS ONE, 2012)
# Tests used:
# [1] = system: HIV-1 transcription in CEM-GFP cells; assay: cells; assay type: cell-based
# [2] = system: HIV-1 LTR-Lac Z reporter in 293T cells; assay: HIV-1 LTR-directed transcription in 293T cells transfected with Tat vector and HIV-1 LTR-LacZ reporter; assay type: cell-based; conditions: Human immunodeficiency virus 1, HEK-293T, read-out: IC50 for inhibition of HIV-1 LTR-directed transcription in 293T cells
# HIV-1 NL4-3 = assay: HIV-1 replication in MT4 cells, reverse transcriptase activity; conditions: HIV-1 NL4-3, tested at 2, 10, 25 µM, RT activity over 8 days
# [3] = system: interaction of Tat with PP1α; assay type: cell-based, human
# PP1α = PP1α (Homo sapiens, UniProt P62136); assay: Nuclear and cytoplasmic distribution of PP1α-EGFP in HeLa and 293T cells; assay type: cell-based; parameters: expressed in transfected cells; host or cells: HeLa; 293T
# Sequence of PP1α (P62136 whole entry): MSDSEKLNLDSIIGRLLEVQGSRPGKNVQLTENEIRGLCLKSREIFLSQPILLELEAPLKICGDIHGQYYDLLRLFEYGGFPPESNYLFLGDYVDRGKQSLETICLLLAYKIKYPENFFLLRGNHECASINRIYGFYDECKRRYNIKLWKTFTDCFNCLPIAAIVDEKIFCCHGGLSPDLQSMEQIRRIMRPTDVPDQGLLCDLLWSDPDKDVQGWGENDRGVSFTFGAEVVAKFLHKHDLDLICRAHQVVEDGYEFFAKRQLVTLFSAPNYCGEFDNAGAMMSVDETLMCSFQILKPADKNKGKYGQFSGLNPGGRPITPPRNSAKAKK
# Text: In live cells, PP1α is dynamically distributed between the cytoplasm and the nucleus, and its shuttling into the nucleus is thought to be regulated by its interaction with sds22 and inhibitor-3 regulatory subunits. […] We analyzed the effect of 1H4 on nuclear localization of PP1α in HeLa cells that were transfected with Flag-Tat and PP1α-EGFP expression vectors and treated with 1H4 or a control compound for 18hrs. In untreated cells, PP1α was localized in the perinuclear area and cytoplasm (Fig. 8A). Co-expression of Tat increased nuclear and perinuclear localization of PP1α (Fig. 8B). Co-expression of mutant Tat ^35QACA^38 in contrast led to a more homogeneous distribution of PP1α (Fig. 8C). […] To achieve quantifiable results, we measured fluorescence of PP1α-EGFP in nuclear and cytoplasmic fractions of 293T cells that were transfected with PP1α-EGFP or PP1α-EGFP and Tat expression vectors and treated with 1H4. […]
# Figure 8 1H4 compound disrupts the Tat-mediated translocation of PP1 into the nucleus. […] Fluorescence was measured in the nuclear and cytoplasmic fractions using Perkin-Elmer Luminoscan. […]
# Nuclear and cytoplasmic extracts were prepared using a modification of previously described method. […] Fluorescence was measured in cytoplasmic and nuclear lysates at 480 nm excitation and 510 nm emission on Luminescence Spectrometer LS50B (Perkin-Elmer).
smiles,measurement,setting,value
COCCNC(=O)COC(=O)c1c2c(nc3ccccc13)/C(=C/c1ccc(O)cc1)CCC2 [1H4],Percent of inhibition of HIV-1 transcription in CEM GFP cells infected with Ad-Tat,"[1]; 25 µM of each compound, 48 hours",96%
same,IC50,"[1]; Human immunodeficiency virus 1, CEM-GFP, 24 h, read-out: Inhibition of HIV-1 Transcription in CEM-GFP cells (IC50, μM)",10 µM
same,IC50,[2],5 µM
same,Concentration from which HIV-1 replication is inhibited,HIV-1 NL4-3,≥ 10 µM
same,Association of Tat with CDK9/cyclin T1,[3],no effect on the association of Tat with CDK9/cyclin T1
same,PP1α co-precipitation with Flag-Tat,[3],reduced the amount of PP1α-EGFP that co-precipitated with Tat
same,Nuclear PP1α-EGFP fluorescence in fractionated cells,"PP1α; 293T cells, absence and presence of Tat, versus untreated or 1G3",significant decrease of nuclear PP1α-EGFP
same,Nuclear localization of PP1α in presence of Tat (fluorescence microscopy),"PP1α; HeLa cells, Flag-Tat and PP1α-EGFP, 10 µM, 18 hours",diminished nuclear localization of PP1α
